Test results from ChEMBL document CHEMBL4138301, “Discovery of Tetralones as Potent and Selective Inhibitors of Acyl-CoA:Diacylglycerol Acyltransferase 1” (ACS Med Chem Lett, 2018).
In brackets after ≈: the same amount, converted by molar mass.

Tests used:
[1] = Kinetic solubility of the compound in pION buffer at pH 7.4 measured after 18 hrs; type: physicochemical; settings: read-out: Kinetic_solubility
[2] = target: T1, Diacylglycerol O-acyltransferase 1 (Mus musculus) (UniProt Q9Z2A7); assay: Inhibition of DGAT1 in mouse C2C12 cells at 300 nM using [14C] oleic acid as substrate measured after 20 mins by phosphorimaging method relative to control; type: cell-based
T1 sequence (whole entry): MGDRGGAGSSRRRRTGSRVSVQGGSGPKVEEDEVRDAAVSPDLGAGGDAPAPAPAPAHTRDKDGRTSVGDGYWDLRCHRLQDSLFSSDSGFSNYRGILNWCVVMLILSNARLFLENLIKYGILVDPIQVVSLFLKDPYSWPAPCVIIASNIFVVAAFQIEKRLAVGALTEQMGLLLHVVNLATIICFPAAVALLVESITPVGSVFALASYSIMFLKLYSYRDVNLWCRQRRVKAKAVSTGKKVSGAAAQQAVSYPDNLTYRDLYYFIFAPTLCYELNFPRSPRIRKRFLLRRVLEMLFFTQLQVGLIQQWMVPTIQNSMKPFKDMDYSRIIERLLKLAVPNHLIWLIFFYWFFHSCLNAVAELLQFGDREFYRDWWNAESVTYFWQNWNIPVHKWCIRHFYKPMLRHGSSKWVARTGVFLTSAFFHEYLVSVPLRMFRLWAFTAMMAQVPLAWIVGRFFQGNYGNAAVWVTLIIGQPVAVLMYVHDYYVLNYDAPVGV

Compound	solubility kinetic at 18 h [1]	inhibition [2]
CCC1(CC(=O)O)CCc2cc(-c3ccc(NC(=O)Nc4ccccc4)cc3)ccc2C1=O (stereo unspecified)	34 µg/mL (≈ 76.8 µM)	
CCC1(CC(=O)O)CCc2cc(-c3ccc(NC(=O)Nc4cccc(Cl)c4)cc3)ccc2C1=O (stereo unspecified)	101 µg/mL (≈ 212 µM)	
COc1cccc(NC(=O)Nc2ccc(-c3ccc4c(c3)CCC(C)(CC(=O)O)C4=O)cc2)c1 (stereo unspecified)	40 µg/mL (≈ 87.2 µM)	
CCC1(CC(=O)O)CCc2cc(-c3ccc(NC(=O)Nc4ccc(C(F)(F)F)cc4)cc3)ccc2C1=O (stereo unspecified)	46 µg/mL (≈ 90.1 µM)	
O=C(O)CC1(CC(F)(F)F)CCc2cc(-c3ccc(NC(=O)Nc4ccccc4)cc3)ccc2C1=O (stereo unspecified)	30 µg/mL (≈ 60.4 µM)	
CCC1(CC(=O)O)CCc2cc(-c3ccc(NC(=O)Nc4cccc(OC)c4)cc3)ccc2C1=O (stereo unspecified)	6 µg/mL (≈ 12.7 µM)	
CC[C@]1(CC(=O)O)CCc2cc(-c3ccc(NC(=O)Nc4ccc(Cl)cc4)cc3)ccc2C1=O	0.4 µg/mL (≈ 0.839 µM)	
Cc1cccc(NC(=O)Nc2ccc(-c3ccc4c(c3)CCC(C)(CC(=O)O)C4=O)cc2)c1 (stereo unspecified)	103 µg/mL (≈ 233 µM)	
CCC1(CC(=O)O)CCc2cc(-c3ccc(NC(=O)Nc4cccc(C(F)(F)F)c4)cc3)ccc2C1=O (racemic)	39 µg/mL (≈ 76.4 µM)	62%
CC1(CC(=O)O)CCc2cc(-c3ccc(NC(=O)Nc4ccccc4)cc3)ccc2C1=O (stereo unspecified)	54 µg/mL (≈ 126 µM)	
CCC1(CC(=O)O)CCc2cc(-c3ccc(NC(=O)Nc4ccccc4C(F)(F)F)cc3)ccc2C1=O (stereo unspecified)	26 µg/mL (≈ 50.9 µM)	
CC[C@@]1(CC(=O)O)CCc2cc(-c3ccc(NC(=O)Nc4ccc(Cl)cc4)cc3)ccc2C1=O	5 µg/mL (≈ 10.5 µM)	83%
CC1(CC(=O)O)CCc2cc(-c3ccc(NC(=O)Nc4cccc(F)c4)cc3)ccc2C1=O (stereo unspecified)	13 µg/mL (≈ 29.1 µM)	
CC1(CC(=O)O)CCc2cc(-c3ccc(NC(=O)Nc4cccc(C(F)(F)F)c4)cc3)ccc2C1=O (stereo unspecified)	72 µg/mL (≈ 145 µM)	
